Patent US5942527A, “Hydrazones, hydrazines, semicarbazones and thiosemicarbazones derived from pyridyl ketones as anticonvulsant drugs and excitatory amino acid antagonists” (K & K Biosciences, Inc., priority 1997, dated 1999)

Assays:
TTE seizure = experiment: Threshold tonic extension (TTE) test, mouse, i.p.; assay type: in vivo
Excerpt: (§1) The hydrazones, hydrazines and semicarbazones derived from pyridyl ketones and the resulting orally effective anticonvulsant compositions of this invention are useful in the treatment of convulsive disorders. […] A series of hydrazones, hydrazines and semicarbazones derived from pyridyl ketones of this invention has been evaluated for anticonvulsant activity by the intraperitoneal (i.p.) and by the oral (p.o.) route using two standard seizure models in the mouse and in the rat, the maximal electroshock seizure (MES) test and the subcutaneous pentylenetetrazole (Metrazole) seizure threshold (scMet) test. […] In addition, the compounds are evaluated in a new model, the threshold tonic extension (TTE) model. […] Thus active compounds that may be missed in the MES and scMet tests in the mouse, i.p., can be detected in the TTE test.
The Threshold Tonic Extension (TTE) Test: The TTE test (Piredda et al., 1985) is a clinically nonselective, electroconvulsive seizure model that identifies compounds that raise seizure threshold as well as those that prevent seizure spread. […] The test is similar to the MES screen but uses a lower level of electrical current. The lower current makes the TTE test more sensitive but less discriminate than the MES screen. This ability makes the model attractive because it allows us to identify compounds that may be missed by our standard identification screen.
Twenty mice are pretreated intraperitoneally with 100 mg/kg of the test substance. At several time intervals (1/4, 1/2, 1, 2, and 4 hours) post treatment with the test drug, four mice at each time point are challenged with 12.5 mA of electrical current for 0.2 seconds via corneal electrodes. This produces a TTE seizure in the animals (Woodbury and Davenport, 1952).
For each time interval results are expressed as a ratio of the number of animals protected over the number tested. […] The positives may represent compounds acting by novel mechanisms.

[1] = tested on: maximal electroshock seizures; experiment: Maximal electroshock seizure (MES) test, rat, p.o.; assay type: in vivo, rat (Sprague-Dawley); conditions: for ED50 / responders at 30 mg/kg: po; for responders at 30 mg/kg: several time points over a 4 hour period, read-out: Percent Protection at 30 mg/kg, in the MES test; for P.I., TD50/ED50, MES: Table 6
Excerpt: The hydrazones, hydrazines and semicarbazones derived from pyridyl ketones and the resulting orally effective anticonvulsant compositions of this invention are useful in the treatment of convulsive disorders. […] A series of hydrazones, hydrazines and semicarbazones derived from pyridyl ketones of this invention has been evaluated for anticonvulsant activity by the intraperitoneal (i.p.) and by the oral (p.o.) route using two standard seizure models in the mouse and in the rat, the maximal electroshock seizure (MES) test and the subcutaneous pentylenetetrazole (Metrazole) seizure threshold (scMet) test. […] In addition, the compounds are evaluated in a new model, the threshold tonic extension (TTE) model. […] Thus active compounds that may be missed in the MES and […] the mouse, i.p., can be detected in the TTE test. The Maximal Electroshock Seizure Test (MES): Maximal electroshock seizures are elicited with a 60 Hz alternating current of 50 mA intensity in mice and about 150 mA intensity in rats (5-7 times that necessary to elicit minimal electroshock seizures), delivered for 0.2 sec via corneal electrodes. A drop of 0.9% saline is instilled in the eye prior to application of the electrodes in order to […]. Abolition of the hind limb tonic extension component of the seizure is defined as protection and results are expressed as number of animals protected/number of animals tested. […] This species will be the subject of the complete anticonvulsant quantification test evaluation as described above, but after oral (gavage) administration of the candidate compound.

[2] = tested on: subcutaneous pentylenetetrazole (Metrazole) seizure; experiment: Subcutaneous pentylenetetrazole (Metrazole) seizure threshold test (scMet), rat, p.o.; assay type: in vivo, rat (Sprague-Dawley); conditions: po, rats, Table 6
Excerpt: as §1
(§2) The Subcutaneous Pentylenetetrazol (Metrazole) Seizure Treshold Test (scMET): A 0.5 % solution of 85 mg/kg of pentylenetetrazole is administered subcutaneously in the posterior midline 30 minutes or 4 hours after drug administration to the animal. Failure to observe even a threshold seizure (a single episode of clonic spasms of at least 5 sec duration) is defined as protection and the results are expressed as number of animals protected/number of animals tested.
(§3) This species will be the subject of the complete anticonvulsant quantification test evaluation as described above, but after oral (gavage) administration of the candidate compound.

[3] = tested on: maximal electroshock seizures; experiment: Maximal electroshock seizure (MES) test, mouse, i.p.; assay type: in vivo, mouse (male Carworth Farms #1); conditions: for ASP Group Classification, MES Test: mouse, 30, 100 and 300 mg/kg; for ED50: Mus musculus, ip; for ED50 / P.I., TD50/ED50, MES: mice, Table 5
Excerpt: The hydrazones, hydrazines and semicarbazones derived from pyridyl ketones and the resulting orally effective anticonvulsant compositions of this invention are useful in the treatment of convulsive disorders. […] A series of hydrazones, hydrazines and semicarbazones derived from pyridyl ketones of this invention has been evaluated for anticonvulsant activity by the intraperitoneal (i.p.) and by the oral (p.o.) route using two standard seizure models in the mouse and in the rat, the maximal electroshock seizure (MES) test and the subcutaneous pentylenetetrazole (Metrazole) seizure threshold (scMet) test. […] In addition, the compounds are evaluated in a new model, the threshold tonic extension (TTE) model. […] Thus active compounds that may be missed in the MES and […] the mouse, i.p., can be detected in the TTE test. Based on the screening results, the compounds are placed in one of three categories. […] Class II compounds show anticonvulsant activity at doses greater than 100 mg/kg or show activity at 100 mg/kg which is not reinforced by similar activity at 300 mg/kg. […] The Class I compounds are those which are most promising as anticonvulsants. […] In mice. i.p.: All compounds are emulsified in 0.5% methylcellulose. The solvent has been tested for anticonvulsant and toxic effects and found to introduce no significant bias into the testing of anticonvulsant activity. The compounds are administered intraperitoneally in a volume of 0.01 ml/gm to male Carworth Farms #1 mice weighing about 20 gm. All compounds are tested at least at three dose levels (30, 100 and 300 mg/kg) at 30 minutes and 4 hours after their administration. The Maximal Electroshock Seizure Test (MES): Maximal electroshock seizures are elicited with a 60 Hz alternating current of 50 mA intensity in mice and about 150 mA intensity in rats (5-7 times that necessary to elicit minimal electroshock seizures), delivered for 0.2 sec via corneal electrodes. A drop of 0.9% saline is instilled in the eye prior to application of the electrodes in order to […]. Abolition of the hind limb tonic extension component of the seizure is defined as protection and results are expressed as number of animals protected/number of animals tested. Anticonvulsant Quantification in Mice, i.p.: The ED50 values are determined in the MES, scMet and rotorod ataxia test.

in vivo [4] = experiment: in vivo; design: species or system rat (Sprague-Dawley); conditions: rat, po
Method: (§4) Neurotoxicity is determined by the rotorod ataxia test in mice and by the positional sense test and gait and stance test in the rat.
as §3
Neurological deficit in rats is examined by the positional sense test and gait and stance test. […] Inability to do so rapidly indicates a neurologic deficit. In the gait and stance test, a neurologic deficit is indicated by a circular or a zigzag gait, ataxia, abnormal spread of the legs, abnormal body posture, tremor, hyperactivity, lack of exploratory behavior, somnolence, stupor, or catalepsy.

in vivo [5] = experiment: in vivo; design: species or system mouse (male Carworth Farms #1); conditions: mouse, ip
Method: as §4
Neurotoxicity is evaluated in mice by the rotorod ataxia test. The animal is placed on a wooden rod of 1 and 1/8" diameter rotating at 6 rpm. Normal mice can remain on a rod rotating at this speed indefinitely.
(§5) Anticonvulsant Quantification in Mice, i.p.: The ED50 values are determined in the MES, scMet and rotorod ataxia test.

[6] = tested on: subcutaneous pentylenetetrazole (Metrazole) seizure; experiment: Subcutaneous pentylenetetrazole (Metrazole) seizure threshold test (scMet), mouse, i.p.; assay type: in vivo, mouse (male Carworth Farms #1); conditions: ip, mice, Table 5
Excerpt: as §1
In mice. i.p.: All compounds are emulsified in 0.5% methylcellulose. The solvent has been tested for anticonvulsant and toxic effects and found to introduce no significant bias into the testing of anticonvulsant activity. The compounds are administered intraperitoneally in a volume of 0.01 ml/gm to male Carworth Farms #1 mice weighing about 20 gm. All compounds are tested at least at three dose levels (30, 100 and 300 mg/kg) at 30 minutes and 4 hours after their administration.
as §2, §5

[7] = Rattus norvegicus, rats, Table 6, read-out: ED50, MES
[8] = rat, Table 7, read-out: Anticonvulsant Efficacy (ED50, mg/kg) in the MES Test

| Structure (SMILES) | ED50 (TTE seizure; Mus musculus, ip, mice, Table 5) | ASP Group Classification, TTE Test (TTE seizure; mouse, 100 mg/kg) | TTE Test (Percent Protection) (TTE seizure; mouse, 100 mg/kg) | ED50 [1, 7] | responders at 30 mg/kg ([1]; rat, 30 mg/kg) | ED50 [1, 8] | P.I., TD50/ED50, MES ([1]; rats) | ED50 [2] | ASP Group Classification, MES Test [3] | TD50 (in vivo [4]) | TD50 (in vivo [5]) | ED50 [6] | ED50 [3] | P.I., TD50/ED50, MES [3] | protection at 30 mg/kg, MES Test ([1]; rat, 30 mg/kg, Table 7) |
| --- | --- | --- | --- | --- | --- | --- | --- | --- | --- | --- | --- | --- | --- | --- | --- |
| CC(=NNc1ccc(Cl)c(Cl)c1)c1ccncc1 [Compound 1, Methyl 4-pyridyl ketone 3,4-dichlorophenylhydrazone] | 71 mg/kg | I (They demonstrate anticonvulsant activity in either the MES test or the scMet test, or both at doses of 100 mg/kg or 30 mg/kg without signs of neurological deficit and thus have an estimated protective index of greater than 1) | 62% | 16.9 mg/kg | 25 to 95% | 16.9 mg/kg | > 29.64 | > 250 mg/kg | III (Those failing to demonstrate anticonvulsant activity at doses up to 300 mg/kg are considered inactive) | > 500 mg/kg |  |  |  |  |  |
| CC(=NNc1cccc(Cl)c1)c1ccncc1 [Compound 3, Methyl 4-pyridyl ketone 3-chlorophenyl hydrazone] |  |  |  | 36.6 mg/kg | 50 to 100% |  | > 13.65 | > 250 mg/kg | II (show anticonvulsant activity at doses greater than 100 mg/kg or show activity at 100 mg/kg which is not reinforced by similar activity at 300 mg/kg) | > 500 mg/kg | 441 mg/kg | > 500 mg/kg | 81.8 mg/kg | 5.39 |  |
| CC(=NNc1ccc(Cl)c(Cl)c1)c1cccnc1 [Compound 4, Methyl 3-pyridyl ketone 3,4-dichlorophenylhydrazone] |  |  |  |  | 25 to 100% |  |  |  | I (They demonstrate anticonvulsant activity in either the MES test or the scMet test, or both at doses of 100 mg/kg or 30 mg/kg without signs of neurological deficit and thus have an estimated protective index of greater than 1) |  | > 500 mg/kg | > 500 mg/kg | 69.8 mg/kg | > 7.17 |  |
| CC(=NNc1ccc(Cl)cc1)c1cccnc1 [Compound 5, Methyl 3-pyridyl ketone 4-chlorophenylhydrazone] |  |  |  | 7.79 mg/kg | 50 to 100% | 7.8 mg/kg | > 64.12 | > 250 mg/kg | I (They demonstrate anticonvulsant activity in either the MES test or the scMet test, or both at doses of 100 mg/kg or 30 mg/kg without signs of neurological deficit and thus have an estimated protective index of greater than 1) | > 500 mg/kg |  |  |  |  |  |
| NC(=O)NN=C(c1ccccc1)c1ccncc1 [Compound 15, Phenyl 4-pyridyl ketone semicarbazone] |  |  |  |  | 50 to 100% |  |  |  | I (They demonstrate anticonvulsant activity in either the MES test or the scMet test, or both at doses of 100 mg/kg or 30 mg/kg without signs of neurological deficit and thus have an estimated protective index of greater than 1) |  | 160 mg/kg | > 300 mg/kg | 57.5 mg/kg | 2.79 | 50-100% |
